Results published in PubChem BioAssay (NCI).
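Briefly, cells in 96-well plates were exposed to five compound concentrations for 48 h, and endpoints were estimated by linear interpolation. TGI: total growth inhibition.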

What was measured:
Assay in all cases: DTP human tumour cell line panel, 48 h
KM12 colon = test system: KM12 colon
A498 renal = test system: A498 renal
OVCAR-4 ovarian = test system: OVCAR-4 ovarian
HCT-15 colon = test system: HCT-15 colon
SW-620 colon = test system: SW-620 colon
SK-MEL-5 melanoma = test system: SK-MEL-5 melanoma
TK-10 renal = test system: TK-10 renal
A549 NSCLC = test system: A549 NSCLC
MCF7 breast = test system: MCF7 breast
NCI-H23 lung = test system: NCI-H23 lung
HT29 colon = test system: HT29 colon
SK-MEL-2 melanoma = test system: SK-MEL-2 melanoma
NCI/ADR-RES ovarian = test system: NCI/ADR-RES ovarian
HCC-2998 colon = test system: HCC-2998 colon
SF-539 CNS = test system: SF-539 CNS
CCRF-CEM leukemia = test system: CCRF-CEM leukemia
UO-31 renal = test system: UO-31 renal
SNB-19 CNS = test system: SNB-19 CNS
NCI-H226 lung = test system: NCI-H226 lung
SNB-75 CNS = test system: SNB-75 CNS
RPMI-8226 leukemia = test system: RPMI-8226 leukemia
MDA-N = test system: MDA-N
SR leukemia = test system: SR leukemia
IGROV1 ovarian = test system: IGROV1 ovarian
786-0 renal = test system: 786-0 renal
K-562 leukemia = test system: K-562 leukemia
SF-295 CNS = test system: SF-295 CNS
NCI-H460 lung = test system: NCI-H460 lung
M14 melanoma = test system: M14 melanoma
MOLT-4 leukemia = test system: MOLT-4 leukemia
EKVX NSCLC = test system: EKVX NSCLC
OVCAR-5 ovarian = test system: OVCAR-5 ovarian
UACC-62 melanoma = test system: UACC-62 melanoma
SK-MEL-28 melanoma = test system: SK-MEL-28 melanoma
HCT-116 colon = test system: HCT-116 colon
U251 CNS = test system: U251 CNS
SK-OV-3 ovarian = test system: SK-OV-3 ovarian
SF-268 CNS = test system: SF-268 CNS
HOP-92 NSCLC = test system: HOP-92 NSCLC
UACC-257 melanoma = test system: UACC-257 melanoma
SN12C renal = test system: SN12C renal
HOP-62 NSCLC = test system: HOP-62 NSCLC
LOX IMVI melanoma = test system: LOX IMVI melanoma
T-47D breast = test system: T-47D breast
NCI-H522 lung = test system: NCI-H522 lung
BT-549 breast = test system: BT-549 breast
PC-3 prostate = test system: PC-3 prostate
OVCAR-3 ovarian = test system: OVCAR-3 ovarian
ACHN renal = test system: ACHN renal
OVCAR-8 ovarian = test system: OVCAR-8 ovarian
CAKI-1 renal = test system: CAKI-1 renal
HS 578T breast = test system: HS 578T breast
DU-145 prostate = test system: DU-145 prostate
RXF 393 renal = test system: RXF 393 renal
MDA-MB-435 = test system: MDA-MB-435
COLO 205 colon = test system: COLO 205 colon
HL-60(TB) leukemia = test system: HL-60(TB) leukemia
MDA-MB-231 breast = test system: MDA-MB-231 breast
MALME-3M melanoma = test system: MALME-3M melanoma

Measured: TGI

CC[C@@H](/C=C\CCC(=O)C[C@H](O)CCC=C(C)C)O[Si](C(C)C)(C(C)C)C(C)C
not listed: MALME-3M melanoma
> 100 µM: all other assays above

Brc1c(C#CCC2CCCCC2)ccc(C#CCC2CCCCC2)c1Br
not listed: NCI-H23 lung | HT29 colon | UO-31 renal | HCT-116 colon | SK-OV-3 ovarian | HOP-62 NSCLC
> 100 µM: all other assays above
